Key:
[1] = Phase 2 clinical study, treatment-related adverse events; type: in vivo, human
Protocol: (§1) The following examples report the results of phase 2 clinical studies where Compound 1 in tablet form was administered orally to patients with different tumor type. In this trial Compound 1 was administered once/day at a dosage of 16 mg/day or 20 mg/day for a 21 day cycle which was repeated as desired. The compound was also administered intermittently on a schedule of 4 days and 3 days off for 21 days per cycle. The cycle was repeated as desired identifies the adverse events in the trials.
A total of 8 patients (50%) experienced at least 1 treatment-related event of Grade ≥3; the most frequently reported event of this kind was rash and maculopapular rash (25.0%).

[2] = system: tumor in patients with advanced cancer; assay: Phase 2 clinical study, tumor shrinkage / response; type: in vivo, human
Protocol: as §1
The reported shrinkages are over 50% for patient 100-006, about 10% for patients 100-009 and about 5% for patient 200-007.

[3] = system: endometrial cancer harboring PIK3CA mutation; ovarian clear cell carcinoma; assay: Objective response in patients given oral Compound (1); type: in vivo, human
[4] = Storage stability of crystal form; type: physicochemical
Protocol: Compound (1) can exist in a crystal form having an x-ray diffraction pattern of least 5 diffraction angles)(20±0.2° selected from 7.7°, 9.5°, 10.3°, 12.3°, 14.5°, 15.6°, 16.3°, 17.8°, 18.3°, 19.3°, 20.9°, 22.8°, 24.2°, 25.7°, 26.8°, 27.7°, 29.0°, and 30.1° in a powder x-ray diffraction spectrum. Preferably the crystal form has peaks at diffraction angles)(20±0.2° 7.7°, 9.5°, 10.3°, 12.3°, 14.5°, 15.6°, 16.3°, 17.8°, 18.3°, 20.9°, 22.8°, 24.2°, 25.7°, 26.8°, 27.7°, 29.0°, and 30.1°. […] The method preparing this crystal form is described in U.S. Pat. No. 10,323,044 the content of which is incorporated herein in its entirety.

[5] = Clearance / accumulation in the body; conditions: in vivo
Source text: A 4 days on and 3 days off cycle in a week is one such cycle, the cycle may be modified to accommodate patients having pharmacokinetics allowing for more days on or requiring more days off such as 5 days on and 2 days off or 3 days on and 4 days off or 6 days on and 1 day off, or 6 days on and 1 day off. The 4 days on and 3 days off regimen or a modified regimen may be repeated for a 21-day cycle or a longer cycle. For example, Compound (1) or its pharmaceutically acceptable salt may be administered consecutively on each of the following four days during a 21-day period: days 1 through 4, days 8 through 11, and days 15 through 18, with a prescribed rest on days 5 through 7, days 12 through 14, and days 19 through 21. Such intermittent administration is applicable also to the combination therapies where Compound (1) or its pharmaceutical acceptable salt is administered in combination with one or more agents.

In the case of C[C@]1(O)C[C@@](N)(c2ccc(-c3nc4n(c3-c3ccccc3)COc3ccncc3-4)cc2)C1 [Compound (1)], the “treatment-related Grade ≥3 AE: hyperglycemia” value ([1]; Grade ≥3) is reported as 12.5%, the “treatment-related Grade ≥3 AE: mucositis oral” value ([1]; Grade ≥3) is reported as 12.5% and the “treatment-related Grade ≥3 AE: neutrophil count decreased” value ([1]; Grade ≥3) is reported as 12.5%. The “treatment-related Grade ≥3 AE: rash and maculopapular rash” value ([1]; Grade ≥3) was 25.0%, the “treatment-related AE: decreased appetite” value ([1]; any grade) was 18.8% and the “treatment-related AE: diarrhea” value ([1]; any grade) was 18.8%. For the same molecule, the “treatment-related AE: fatigue” value ([1]; any grade) was 37.5%, the “treatment-related AE: hyperglycemia” value ([1]; any grade) was 31.3% and the “treatment-related AE: mucositis oral” value ([1]; any grade) was 18.8%. The “treatment-related AE: nausea” value ([1]; any grade) was 12.5%, the “treatment-related AE: pruritus” value ([1]; any grade) was 25.0% and the “treatment-related AE: rash and maculopapular rash, patients” value ([1]; any grade, up to 20 mg QD / 24 mg intermittent) was 62.5%. For the same molecule, the safety profile ([1]; up to 20 mg QD and 24 mg intermittent dosing, patients with advanced cancer) was “generally acceptable and clinically manageable”, the “patients with tumor shrinkage” value ([2]; of the 15 patients treated, PIDs 100-006, 200-005, 100-009, 200-007) was 4 patients and the “response in the target lesion (Lymph Node)” value ([2]; patient 100-006) was “complete response”. For the same molecule, the tumor shrinkage ([2]; patient 100-006) was “over 50%”, the tumor shrinkage ([2]; patient 100-009) was “about 10%” and the tumor shrinkage ([2]; patient 200-007) was “about 5%”. For the same molecule, the “patients with objective response” value ([3]; endometrial cancer harboring PIK3CA mutation) was “one”, the “patients with objective response” value ([3]; ovarian clear cell carcinoma) was 3 patients and the shelf life indicated ([4]; room temperature, inferred from 40° C. six-month storage) was 24 month. The stability on storage ([4]; stored at 40° C. for six months) was “good stability” and the “clearance from the body” value [5] was “not cleared from the body quickly but can accumulate in the body”.

From US20240122937A1, “TREATING CANCER IN PATIENT WITH PTEN INACTIVATING MUTATION” (TAIHO PHARMACEUTICAL CO., LTD., priority 2021, published 2024)
